System: Spontaneously hypertensive rats (SHR)
Experiment: Acute Efficacy in Spontaneously Hypertensive Rats (SHR), telemetry blood pressure
Format: in vivo, rat
From the text: Acute Efficacy in Spontaneously Hypertensive Rats (SHR)
Spontaneously hypertensive rats (SHR, male, Charles River) were implanted with DSI TA11PA-C40 telemetry device (Data Sciences, Inc., St. Paul, Minn.) under isoflurane or ketamine/metomidine anesthesia. The telemetry unit catheter was inserted into the descending aorta via the femoral artery and the telemetry device was implanted subcutaneously in the left flank area. Animals were allowed to recover from surgery for 14 days before the start of any studies. Blood pressure, heart rate, and activity signals from conscious, freely moving rats were recorded continuously for 30 seconds every 10 minutes. On the day prior to administration of compound, a single oral dose of vehicle (10% transcutol/20% Cremophor/70% water) was administered to all animals to establish baseline control data. The blood pressure lowering efficacy of compound (PO) or vehicle was evaluated following a single oral gavage. Data were collected as hourly averages, and changes in blood pressure were calculated by subtracting control baseline data on an hourly basis. Animals were maintained on normal diet with a 12 hour light-dark cycle.
Maximum peak decreases of systolic blood pressure (SBP) in SHR at a particular P.O. dose (mpk milligrams per kilogram) for the following representative compounds are provided.

SMILES | Maximum SBP reduction (dose 0.3 mpk) [mmHg] | Maximum peak decrease of systolic blood pressure (SBP) in SHR, Category (single oral dose 0.3 mpk P.O.) | other results
CC1(C(N)=O)C(=O)Nc2nc(-c3nn(CCC(F)(F)C(F)(F)F)c4cc(Cl)ccc34)nc(N)c21 (single isomer, unassigned) [Example 159, 4-Amino-2-[6-Chloro-1-(3,3,4,4,4-Pentafluorobutyl)-1H-Indazol-3-yl]-5-Methyl-6-Oxo-6,7-Dihydro-5H-Pyrrolo[2,3-D]Pyrimidine-5-Carboxamide] | 38 ± 6 | B (Category B=SBP in SHRs 25-40 mmHg) | 
CC1(C(=O)NC2CC2)C(=O)Nc2nc(-c3nn(CCC(F)(F)C(F)(F)F)c4cc(Cl)ccc34)nc(N)c21 (single isomer, unassigned) [Example 160, 4-Amino-2-[6-Chloro-1-(3,3,4,4,4-Pentafluorobutyl)-1H-Indazol-3-yl]-N-Cyclopropyl-5-Methyl-6-Oxo-6,7-Dihydro-5H-Pyrrolo[2,3-D]Pyrimidine-5-Carboxamide] | 77 ± 10 | C (Category C=SBP in SHRs>40 mmHg) | 
CC1(c2ncccn2)C(=O)Nc2nc(-c3nn(CCC(F)(F)C(F)(F)F)c4ncccc34)nc(N)c21 (single isomer, unassigned) [Example 170, 4-Amino-5-Methyl-2-[1-(3,3,4,4,4-Pentafluorobutyl)-1H-Pyrazolo[3,4-B]Pyridin-3-yl]-5-Pyrimidin-2-yl-5,7-Dihydro-6H-Pyrrolo[2,3-D]Pyrimidin-6-One] |  |  | Maximum SBP reduction (dose 1.0 mpk): 65 ± 13 mmHg; Maximum peak decrease of systolic blood pressure (SBP) in SHR, Category (single oral dose 1 mpk P.O.): C (Category C=SBP in SHRs>40 mmHg)
CC1(c2ccccc2)C(=O)Nc2nc(-c3nc(CCC(F)(F)C(F)(F)F)c4ccccn34)nc(N)c21 (single isomer, unassigned) [Example 190, 4-Amino-5-Methyl-2-[1-(3,3,4,4,4-Pentafluorobutyl)Imidazo[1,5-A]Pyridin-3-yl]-5-Phenyl-5,7-Dihydro-6H-Pyrrolo[2,3-D]Pyrimidin-6-One] |  | B (Category B=SBP in SHRs 25-40 mmHg) | 
CC1(C(N)=O)C(=O)Nc2nc(-c3nn(CCC(F)(F)C(F)(F)F)c4ncccc34)nc(N)c21 (stereo not drawn) [Example 161, 4-Amino-5-Methyl-6-Oxo-2-[1-(3,3,4,4,4-Pentafluorobutyl)-1H-Pyrazolo[3,4-B]Pyridin-3-yl]-6,7-Dihydro-5H-Pyrrolo[2,3-D]Pyrimidine-5-Carboxamide] |  | B (Category B=SBP in SHRs 25-40 mmHg) | 
NC(=O)C1(C2CC2)C(=O)Nc2nc(-c3nn(CCC(F)(F)C(F)(F)F)c4ncccc34)nc(N)c21 (stereo not drawn) [Example 162, 4-Amino-5-Cyclopropyl-6-Oxo-2-[1-(3,3,4,4,4-Pentafluorobutyl)-1H-Pyrazolo[3,4-B]Pyridin-3-yl]-6,7-Dihydro-5H-Pyrrolo[2,3-D]Pyrimidine-5-Carboxamide] | 26 ± 7 | B (Category B=SBP in SHRs 25-40 mmHg) | 
N#CC1(C2CC2)C(=O)Nc2nc(-c3nn(CCC(F)(F)C(F)(F)F)c4ncccc34)nc(N)c21 (stereo not drawn) [Example 163, 4-Amino-5-Cyclopropyl-6-Oxo-2-[1-(3,3,4,4,4-Pentafluorobutyl)-1H-Pyrazolo[3,4-B]Pyridin-3-yl]-6,7-Dihydro-5H-Pyrrolo[2,3-D]Pyrimidine-5-Carbonitrile] |  | C (Category C=SBP in SHRs>40 mmHg) | 
CC1(C(=O)NC2CC2)C(=O)Nc2nc(-c3nn(CCC(F)(F)C(F)(F)F)c4ncccc34)nc(N)c21 (stereo not drawn) [Example 164, 4-Amino-N-Cyclopropyl-5-Methyl-6-Oxo-2-[1-(3,3,4,4,4-Pentafluorobutyl)-1H-Pyrazolo[3,4-B]Pyridin-3-yl]-6,7-Dihydro-5H-Pyrrolo[2,3-D]Pyrimidine-5-Carboxamide] |  | C (Category C=SBP in SHRs>40 mmHg) | 
CC1(C(=O)Nc2ccccc2)C(=O)Nc2nc(-c3nn(CCC(F)(F)C(F)(F)F)c4cc(Cl)ccc34)nc(N)c21 (stereo not drawn) [Example 165, 4-Amino-2-[6-Chloro-1-(3,3,4,4,4-Pentafluorobutyl)-1H-Indazol-3-yl]-5-Methyl-6-Oxo-N-Phenyl-6,7-Dihydro-5H-Pyrrolo[2,3-D]Pyrimidine-5-Carboxamide] |  | B (Category B=SBP in SHRs 25-40 mmHg) | 
CCOC(=O)NC1(C)C(=O)Nc2nc(-c3nn(CCC(F)(F)C(F)(F)F)c4cc(Cl)ccc34)nc(N)c21 (stereo not drawn) [Example 166, Ethyl (4-Amino-2-(6-Chloro-1-(3,3,4,4,4-Pentafluorobutyl)-1H-Indazol-3-yl)-5-Methyl-6-Oxo-6,7-Dihydro-5H-Pyrrolo[2,3-D]Pyrimidin-5-yl)Carbamate] |  | A (Category A=SBP in SHRs<25 mmHg) | 
Cc1nc(C2(C)C(=O)Nc3nc(-c4nn(CCC(F)(F)C(F)(F)F)c5cc(Cl)ccc45)nc(N)c32)sc1C (stereo not drawn) [Example 167, 4-Amino-2-[6-Chloro-1-(3,3,4,4,4-Pentafluorobutyl)-1H-Indazol-3-yl]-5-(4,5-Dimethyl-1,3-Thiazol-2-yl)-5-Methyl-5,7-Dihydro-6H-Pyrrolo[2,3-D]Pyrimidin-6-One] |  | B (Category B=SBP in SHRs 25-40 mmHg) | 
CC1(c2nncs2)C(=O)Nc2nc(-c3nn(CCC(F)(F)C(F)(F)F)c4ncccc34)nc(N)c21 (stereo not drawn) [Example 168, 4-Amino-5-Methyl-2-[1-(3,3,4,4,4-Pentafluorobutyl)-1H-Pyrazolo[3,4-B]Pyridin-3-yl]-5-(1,3,4-Thiadiazol-2-yl)-5,7-Dihydro-6H-Pyrrolo[2,3-D]Pyrimidin-6-One] | 19 ± 9 | A (Category A=SBP in SHRs<25 mmHg) | 
Cc1nnc(C2(C)C(=O)Nc3nc(-c4nn(CCC(F)(F)C(F)(F)F)c5ncccc45)nc(N)c32)o1 (stereo not drawn) [Example 169, 4-Amino-5-Methyl-5-(5-Methyl-1,3,4-Oxadiazol-2-yl)-2-[1-(3,3,4,4,4-Pentafluorobutyl)-1H-Pyrazolo[3,4-B]Pyridin-3-yl]-5,7-Dihydro-6H-Pyrrolo[2,3-D]Pyrimidin-6-One] | 52 ± 5 | C (Category C=SBP in SHRs>40 mmHg) | 
CC(C)n1nc(C2(C)C(=O)Nc3nc(-c4nn(CCC(F)(F)C(F)(F)F)c5cc(Cl)ccc45)nc(N)c32)oc1=O (stereo not drawn) [Example 171, 4-Amino-2-[6-Chloro-1-(3,3,4,4,4-Pentafluorobutyl)-1H-Indazol-3-yl]-5-Methyl-5-[5-Oxo-4-(Propan-2-yl)-4,5-Dihydro-1,3,4-Oxadiazol-2-yl]-5,7-Dihydro-6H-Pyrrolo[2,3-D]Pyrimidin-6-One] |  | C (Category C=SBP in SHRs>40 mmHg) | 
CC(C)n1nc(C2(C)C(=O)Nc3nc(-c4nn(CCC(F)(F)C(F)(F)F)c5cc(Cl)ccc45)nc(N)c32)oc1=S (stereo not drawn) [Example 172, 4-Amino-2-[6-Chloro-1-(3,3,4,4,4-Pentafluorobutyl)-1H-Indazol-3-yl]-5-Methyl-5-[4-(Propan-2-yl)-5-Thioxo-4,5-Dihydro-1,3,4-Oxadiazol-2-yl]-5,7-Dihydro-6H-Pyrrolo[2,3-D]Pyrimidin-6-One] |  | A (Category A=SBP in SHRs<25 mmHg) | 
CCn1cc(C2(C)C(=O)Nc3nc(-c4nn(CCC(F)(F)C(F)(F)F)c5ncccc45)nc(N)c32)nn1 (stereo not drawn) [Example 173, 4-Amino-5-(1-Ethyl-1H-1,2,3-Triazol-4-yl)-5-Methyl-2-[1-(3,3,4,4,4-Pentafluorobutyl)-1H-Pyrazolo[3,4-B]Pyridin-3-yl]-5,7-Dihydro-6H-Pyrrolo[2,3-D]Pyrimidin-6-One] | 66 ± 6 | C (Category C=SBP in SHRs>40 mmHg) | 
CC1(NCC2CC2)C(=O)Nc2nc(-c3nn(CCC(F)(F)C(F)(F)F)c4ncccc34)nc(N)c21 (stereo not drawn) [Example 174, 4-Amino-5-[(Cyclopropylmethyl)Amino]-5-Methyl-2-[1-(3,3,4,4,4-Pentafluorobutyl)-1H-Pyrazolo[3,4-B]Pyridin-3-yl]-5,7-Dihydro-6H-Pyrrolo[2,3-D]Pyrimidin-6-One] |  | B (Category B=SBP in SHRs 25-40 mmHg) | 
CC1(CC#N)C(=O)Nc2nc(-c3nn(CCC(F)(F)C(F)(F)F)c4cc(Cl)ccc34)nc(N)c21 (stereo not drawn) [Example 175, {4-Amino-2-[6-Chloro-1-(3,3,4,4,4-Pentafluorobutyl)-1H-Indazol-3-yl]-5-Methyl-6-Oxo-6,7-Dihydro-5H-Pyrrolo[2,3-D]Pyrimidin-5-yl}Acetonitrile] |  | B (Category B=SBP in SHRs 25-40 mmHg) | 
CC1(C(=O)NC2CC2)C(=O)Nc2nc(-c3nn(CCC(F)(F)C(F)(F)F)c4nc(Cl)ccc34)nc(N)c21 (stereo not drawn) [Example 176, 4-Amino-2-(6-Chloro-1-(3,3,4,4,4-Pentafluorobutyl)-1H-Pyrazolo[3,4-B]Pyridin-3-yl)-N-Cyclopropyl-5-Methyl-6-Oxo-6,7-Dihydro-5H-Pyrrolo[2,3-D]Pyrimidine-5-Carboxamide] |  |  | Maximum peak decrease of systolic blood pressure (SBP) in SHR, Category (single oral dose 0.1 mpk P.O.): C (Category C=SBP in SHRs>40 mmHg)
COc1ccc2c(-c3nc(N)c4c(n3)NC(=O)C4(C)C(=O)NC3CC3)nn(CCC(F)(F)C(F)(F)F)c2n1 (stereo not drawn) [Example 178, 4-Amino-N-Cyclopropyl-2-(6-Methoxy-1-(3,3,4,4,4-Pentafluorobutyl)-1H-Pyrazolo[3,4-B]Pyridin-3-yl)-5-Methyl-6-Oxo-6,7-Dihydro-5H-Pyrrolo[2,3-D]Pyrimidine-5-Carboxamide] |  |  | Maximum peak decrease of systolic blood pressure (SBP) in SHR, Category (single oral dose 0.1 mpk P.O.): A (Category A=SBP in SHRs<25 mmHg)
